Consider two compounds from US6518041B1, “Hormone response element that binds an androgen and progesterone receptor” (Schering Aktiengesellschaft, priority 1998, dated 2003).

Structures are written as SMILES.

Experiment [1] deals with T1, androgen receptor (Homo sapiens, UniProt P10275).
T1 construct: expressed in transfected cells; host or cells: PC-3 cells stably transformed with an androgen receptor expression vector (PC-3/AR)
T1 sequence (P10275 1-920): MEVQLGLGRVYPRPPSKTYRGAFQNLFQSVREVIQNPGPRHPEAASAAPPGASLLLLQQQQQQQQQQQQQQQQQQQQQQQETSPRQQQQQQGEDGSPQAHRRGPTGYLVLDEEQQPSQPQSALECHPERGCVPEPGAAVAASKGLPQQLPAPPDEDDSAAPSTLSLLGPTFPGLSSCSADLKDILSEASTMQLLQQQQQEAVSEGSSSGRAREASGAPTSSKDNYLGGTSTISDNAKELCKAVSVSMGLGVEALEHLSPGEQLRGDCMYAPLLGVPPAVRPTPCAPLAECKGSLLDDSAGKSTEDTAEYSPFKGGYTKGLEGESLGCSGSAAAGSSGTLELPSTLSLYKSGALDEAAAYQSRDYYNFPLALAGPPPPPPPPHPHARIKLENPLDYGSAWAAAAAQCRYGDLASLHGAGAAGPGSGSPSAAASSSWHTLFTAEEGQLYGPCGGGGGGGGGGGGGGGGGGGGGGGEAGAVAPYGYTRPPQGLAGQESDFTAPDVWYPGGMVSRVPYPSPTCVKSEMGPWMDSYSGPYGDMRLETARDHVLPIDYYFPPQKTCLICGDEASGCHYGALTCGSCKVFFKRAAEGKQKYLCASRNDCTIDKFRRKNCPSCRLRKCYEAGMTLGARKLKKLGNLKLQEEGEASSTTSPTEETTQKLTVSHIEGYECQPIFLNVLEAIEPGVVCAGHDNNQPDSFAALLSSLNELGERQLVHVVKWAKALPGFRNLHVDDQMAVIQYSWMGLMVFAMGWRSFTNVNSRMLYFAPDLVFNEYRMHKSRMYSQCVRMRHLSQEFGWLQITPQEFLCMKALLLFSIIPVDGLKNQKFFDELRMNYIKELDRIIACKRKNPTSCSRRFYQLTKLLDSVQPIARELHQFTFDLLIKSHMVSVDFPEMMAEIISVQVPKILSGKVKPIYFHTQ
In words: ARE17 luciferase reporter test system in PC-3/AR cells. The class given is cell-based. The text has this:
Preferred is the use of the luciferase reporter gene and of PC-3 cells that have been transformed in advance in a stable manner with an expression vector for the androgen receptor (PC-3/AR cells) or in a transient parallel manner. In addition, the use of the TK minimal promoter is preferred. […] A progestin is a synthetic progesterone analog.
(§1) Test systems were compared that contained either an HRE according to the invention that corresponds to Seq. ID No. 1 (ARE17) or the consensus-HRE with the sequence (SEQ ID NO: 5) 5′-[…]-3′ (ARE). All other components were respectively the same. Copies of the ARE17 were introduced upstream from the TK minimal promoter and the luciferase gene in the pGL3-basic vector (FIG. 1). PC-3/AR cells, which already express the androgen receptor in a stable manner, were saturated in RPMI1640/10% cFS/L-glutamine for 18-24 hours and then transformed for five hours with 100 ng of reporter plasmid and the Fu-gene transfection reagent (Boehringer Mannheim). Then, the medium was replaced by RPM1640/5% cFCS/L-glutamine, and the activity of the reporter gene measured 42 hours later.
(§2) Four copies of the elements were introduced upstream from the TK minimal promoter and the luciferase gene in the pGL3-basic vector (FIG. 1) and transformed in the PC-3/AR-cells, which already express the androgen receptor in a stable manner, as described above. The stimulation was carried out with the synthetic androgen R1881 (10^−9M or 10^−7M final concentration).
(Reporter assays use an easily measured gene product as a stand-in for the process of interest.)

In experiment [2] the target is T1, androgen receptor. In words: consensus-HRE (ARE) luciferase reporter test system in PC-3/AR cells. The class given is cell-based.
Excerpt: as §1, §2

On to `C[C@]1(O)CC[C@H]2[C@@H]3CCC4=CC(=O)CCC4=C3C=C[C@@]21C` [R1881], for which the “induction of the luciferase activity” value on androgen receptor [1] (2 copies of ARE17, TK minimal promoter, PC-3/AR cells, androgen receptor expression vector) is 10.5 fold. The “induction of the luciferase activity compared between ARE17, consensus-HRE and IDR17” value is on record as “strongest induction” at androgen receptor [1] (4 copies of ARE17, R1881 10^-9 M or 10^-7 M) and “weakest stimulation” at androgen receptor [2] (4 copies of consensus-HRE, R1881 10^-9 M or 10^-7 M). Besides, the “increase of the luciferase activity” value on androgen receptor [1] (4 copies of ARE17, TK minimal promoter, PC-3/AR cells) amounted to 46 fold. Moreover, the “difference in stimulation between the two R1881 concentrations” value at androgen receptor [1] (4 copies, 10^-9 M versus 10^-7 M final concentration) is recorded as “No decisive difference”. The “induction of the luciferase activity (in words)” value on androgen receptor [1] (ARE17, R1881 10^-7 M, measured 42 hours later) was “very strong induction”.
Regarding `CC(C)(O)C(=O)Nc1ccc([N+](=O)[O-])c(C(F)(F)F)c1` [hydroxyflutamide], the “stimulation of ARE17 in the absence of an androgen” value on androgen receptor [1] (4 copies, no androgen) was “stimulated neither”. Besides, the “stimulation of the consensus-HRE in the absence of an androgen” value on androgen receptor [2] (4 copies, no androgen) is reported as “stimulated neither”.
